From patent publication US12226412B2, “Heteroaryl-ketone fused azadecalin glucocorticoid receptor modulators” (Corcept Therapeutics, Inc., priority 2012, dated 2025)
Where two headings read alike, the source gives them in different places.

Experiments:
[1] = tested on: induction of TAT by dexamethasone in HepG2 cells; assay: HepG2 tyrosine aminotransferase (TAT) assay; assay type: cell-based, human
Procedure: Example 21. HepG2 Tyrosine Aminotransferase (TAT) Assay
Glucocorticoid mediated activation of TAT occurs by transactivation of glucocorticoid response elements in the TAT promoter by glucocorticoid receptor agonist complex.
TAT activity was measured as outlined in the literature by A. Ali et al., J. Med. Chem., 2004, 47, 2441-2452.
HepG2 cells were cultured using MEME media supplemented with 10% (v/v) foetal bovine serum; 2 mM L-glutamine and 1% (v/v) NEAA at 37° C., 5%/95% (v/v) CO2/air. The HepG2 cells were counted and adjusted to yield a density of 0.125×10^6 cells/ml in RPMI 1640 without phenol red, 10% (v/v) charcoal stripped FBS, 2 mM L-glutamine and seeded at 25,000 cells/well in 200 μl into 96 well, sterile, tissue culture micro titre plates, and incubated at 37° C., 5% CO2 for 24 hours
Growth media was removed and replaced with assay media {RPMI 1640 without phenol red, 2 mM L-glutamine+10 μM forskolin}. […] Compounds were serially half log diluted in 100% (v/v) dimethylsupfoxide from a 10 mM stock.
HepG2 cells were then lysed with 30 μl of cell lysis buffer containing a protease inhibitor cocktail for 15 minutes at 4° C. 155 μl of substrate mixture was then added containing 5.4 mM Tyrosine sodium salt, 10.8 mM alpha ketoglutarate and 0.06 mM pyridoxal 5′ phosphate in 0.1M potassium phosphate buffer (pH 7.4). After 2 hours incubation at 37° C. the reaction was terminated by the addition of 15 μl of 10M aqueous potassium hydroxide solution, and the plates incubated for a further 30 minutes at 37° C. The TAT activity product was measured by absorbance at […].
[compound] and fitting the data to a 4 parameter logistic equation.

[2] = target: T1, human recombinant GR (Homo sapiens, UniProt P04150); assay: Human glucocorticoid receptor (GR) fluorescence polarisation (FP) binding assay
T1 construct: purchased PanVera P2812
T1 sequence (P04150 1-777): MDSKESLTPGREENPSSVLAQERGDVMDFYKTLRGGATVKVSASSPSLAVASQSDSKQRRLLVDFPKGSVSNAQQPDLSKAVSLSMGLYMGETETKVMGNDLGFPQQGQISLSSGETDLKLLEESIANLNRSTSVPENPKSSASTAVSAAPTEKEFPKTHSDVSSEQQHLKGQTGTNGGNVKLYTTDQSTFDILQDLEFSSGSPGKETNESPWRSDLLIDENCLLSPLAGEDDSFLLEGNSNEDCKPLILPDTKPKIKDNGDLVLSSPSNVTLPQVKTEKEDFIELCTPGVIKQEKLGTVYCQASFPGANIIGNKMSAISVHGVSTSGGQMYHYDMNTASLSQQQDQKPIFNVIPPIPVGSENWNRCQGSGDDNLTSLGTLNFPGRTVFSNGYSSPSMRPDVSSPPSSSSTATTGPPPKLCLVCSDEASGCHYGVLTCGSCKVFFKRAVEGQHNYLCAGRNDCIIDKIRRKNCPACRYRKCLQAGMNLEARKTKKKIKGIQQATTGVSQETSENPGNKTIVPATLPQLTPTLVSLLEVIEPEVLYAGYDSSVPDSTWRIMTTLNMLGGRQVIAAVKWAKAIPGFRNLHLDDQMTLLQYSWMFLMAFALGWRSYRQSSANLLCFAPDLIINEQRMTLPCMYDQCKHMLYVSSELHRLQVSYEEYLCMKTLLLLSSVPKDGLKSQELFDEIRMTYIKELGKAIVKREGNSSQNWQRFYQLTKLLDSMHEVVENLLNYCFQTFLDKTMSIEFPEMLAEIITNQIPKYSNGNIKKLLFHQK
Procedure: Human Glucocorticoid Receptor (GR) Fluorescence Polarisation (FP) Binding Assay
The following is a description of a FP assay for measuring compound inhibition of labelled glucocorticoid binding to the human recombinant GR.
The binding affinity of test compounds was determined using a FP binding assay using human recombinant GR (PanVera P2812) and a fluorescent labelled glucocorticoid ligand (Fluorome GS Red) (PanVera P2894). The presence of inhibitors prevents the formation of a GS Red/GR complex resulting in a decrease in the measured polarisation value. The change in polarisation value in the presence of test compounds is used to calculate the binding affinity of the compound for GR.
This assay was performed in 384 well, black, round-bottom, polypropylene micro titre plates in a final volume of 20 μl. The assay contained 5 μl 1 nM GR (final concentration), 5 μl 0.5 nM Fluorome GS Red (final concentration) in the presence of 10 μl test compounds. Positive control wells (high polarisation) receive, 10 μl 2% (v: v) DMSO vehicle (1% (v/v) final concentration)+5 μl 1 nM GR and 5 μl 0.5 nM Fluorome GS Red. […] Assay blank background wells (used for normalisation) receive 15 μl 1× GS screening buffer+5 μl GR.
Compounds were prepared as solubilised solids at 10 mM in DMSO. On the day of assay, an 8 point half-log serial dilution (55 μl DMSO+25 μl compound solution) was prepared. A 1:50 dilution (1 μl compound solution+49 μl 1× GR screening buffer) was prepared for each compound. The compounds were prepared at 2× final assay concentration.
The plates were mixed and incubated for 4 hour at room temperature.
10× GR screening buffer (100 mM potassium phosphate pH 7.4, 200 mM Na2MoO4, 1 mM EDTA, 20% (v/v) DMSO). To prepare 1× GR screening buffer, combine 1 ml 10× GR screening buffer (PanVera P2814)+1 ml stabilising peptide (PanVera P2815)+7.95 ml 4° C. MQ water. Add 50 μl 1M DTT, vortex and place on ice until use.

[3] = HepG2 cells, challenge of 100 nM dexamethasone, Ki from IC50 by Cheng and Prusoff equation
[4] = human recombinant GR, fluorescence polarisation binding assay, read-out: GR binding

SMILES	Ki [1, 3] [nM]	Ki [2, 4] [nM]	Ki [1] [nM]	Ki [2] [nM]
O=C(c1nccs1)[C@]12Cc3cnn(-c4ccc(F)cc4)c3C=C1CCN(S(=O)(=O)c1ccc(F)c(C(F)(F)F)c1)C2 [Example 12I, (R)-(6-((4-fluoro-3-(trifluoromethyl)phenyl)sulfonyl)-1-(4-fluorophenyl)-4,4a,5,6,7,8-hexahydro-1H-pyrazolo[3,4-g]isoquinolin-4a-yl)(thiazol-2-yl)methanone]	20 to 100	< 0.5		
Cc1ccnc(C(=O)[C@]23Cc4cnn(-c5ccc(F)cc5)c4C=C2CCN(S(=O)(=O)c2cc(F)cc(F)c2)C3)c1 [Example 11W, (R)-(6-((3,5-difluorophenyl)sulfonyl)-1-(4-fluorophenyl)-4,4a,5,6,7,8-hexahydro-1H-pyrazolo[3,4-g]isoquinolin-4a-yl)(4-methylpyridin-2-yl)methanone]	< 20	< 0.5		
O=C(c1cccnc1)[C@]12Cc3cnn(-c4ccc(F)cc4)c3C=C1CCN(S(=O)(=O)c1ccc(C(F)(F)F)cc1)C2 [Example 1B, (R)-(1-(4-fluorophenyl)-6-((4-(trifluoromethyl)phenyl)sulfonyl)-4,4a,5,6,7,8-hexahydro-1H-pyrazolo[3,4-g]isoquinolin-4a-yl)(pyridin-3-yl)methanone]			> 100	0.5 to 1
O=C(c1ccccn1)[C@]12Cc3cnn(-c4ccc(F)cc4)c3C=C1CCN(S(=O)(=O)c1cn[nH]c1)C2 [Example 11BS, (R)-(6-((1H-pyrazol-4-yl)sulfonyl)-1-(4-fluorophenyl)-4,4a,5,6,7,8-hexahydro-1H-pyrazolo[3,4-g]isoquinolin-4a-yl)(pyridin-2-yl)methanone]	20 to 100	0.5 to 1		
COc1ccc(S(=O)(=O)N2CCC3=Cc4c(cnn4-c4ccc(F)cc4)C[C@]3(C(=O)c3ccccn3)C2)cc1 [Example 2I, (R)-(1-(4-fluorophenyl)-6-((4-methoxyphenyl)sulfonyl)-4,4a,5,6,7,8-hexahydro-1H-pyrazolo[3,4-g]isoquinolin-4a-yl)(pyridin-2-yl)methanone]	< 20	< 0.5		
CCn1ncc(S(=O)(=O)N2CCC3=Cc4c(cnn4-c4ccc(F)cc4)C[C@]3(C(=O)c3ccccn3)C2)n1 [Example 11CH, (R)-(6-((2-ethyl-2H-1,2,3-triazol-4-yl)sulfonyl)-1-(4-fluorophenyl)-4,4a,5,6,7,8-hexahydro-1H-pyrazolo[3,4-g]isoquinolin-4a-yl)(pyridin-2-yl)methanone]	< 20	< 0.5		
O=C(c1ccccn1)[C@]12Cc3cnn(-c4ccc(F)cc4)c3C=C1CCN(S(=O)(=O)c1ccc(N3CCCC3)cc1)C2 [Example 10, (R)-(1-(4-fluorophenyl)-6-((4-(pyrrolidin-1-yl)phenyl)sulfonyl)-4,4a,5,6,7,8-hexahydro-1H-pyrazolo[3,4-g]isoquinolin-4a-yl)(pyridin-2-yl)methanone]	≥ 100	< 0.5		
Cc1ccnc(C(=O)[C@]23Cc4cnn(-c5ccc(F)cc5)c4C=C2CCN(S(=O)(=O)c2ccc(C(F)(F)F)c(F)c2)C3)c1 [Example 11AS, (R)-(6-((3-fluoro-4-(trifluoromethyl)phenyl)sulfonyl)-1-(4-fluorophenyl)-4,4a,5,6,7,8-hexahydro-1H-pyrazolo[3,4-g]isoquinolin-4a-yl)(4-methylpyridin-2-yl)methanone]	< 20	< 0.5		
CCCn1cc(S(=O)(=O)N2CCC3=Cc4c(cnn4-c4ccc(F)cc4)C[C@]3(C(=O)c3cc(C(F)(F)F)ccn3)C2)cn1 [Example 11CX, (R)-(1-(4-fluorophenyl)-6-((1-propyl-1H-pyrazol-4-yl)sulfonyl)-4,4a,5,6,7,8-hexahydro-1H-pyrazolo[3,4-g]isoquinolin-4a-yl)(4-(trifluoromethyl)pyridin-2-yl)methanone]	< 20	< 0.5		
Cc1cccc(S(=O)(=O)N2CCC3=Cc4c(cnn4-c4ccc(F)cc4)C[C@]3(C(=O)c3ncco3)C2)c1 [Example 1I, (R)-(1-(4-fluorophenyl)-6-(m-tolylsulfonyl)-4,4a,5,6,7,8-hexahydro-1H-pyrazolo[3,4-g]isoquinolin-4a-yl)(oxazol-2-yl)methanone]	20 to 100	< 0.5		
Cc1ccnc(C(=O)[C@]23Cc4cnn(-c5ccc(F)cc5)c4C=C2CCN(S(=O)(=O)c2cnn(C)c2C)C3)c1 [Example 11AI, (R)-(6-((1,5-dimethyl-1H-pyrazol-4-yl)sulfonyl)-1-(4-fluorophenyl)-4,4a,5,6,7,8-hexahydro-1H-pyrazolo[3,4-g]isoquinolin-4a-yl)(4-methylpyridin-2-yl)methanone]	< 20	< 0.5		
O=C(c1cc(C(F)(F)F)ccn1)[C@]12Cc3cnn(-c4ccc(F)cc4)c3C=C1CCN(S(=O)(=O)c1c[nH]cn1)C2 [Example 2W, (R)-(6-((1H-imidazol-4-yl)sulfonyl)-1-(4-fluorophenyl)-4,4a,5,6,7,8-hexahydro-1H-pyrazolo[3,4-g]isoquinolin-4a-yl)(4-(trifluoromethyl)pyridin-2-yl)methanone]	20 to 100	> 1		
O=C(c1ccccn1)[C@]12Cc3cnn(-c4ccc(F)cc4)c3C=C1CCN(S(=O)(=O)c1cncc(N3CCCCC3)c1)C2 [Example 10A, (R)-(1-(4-fluorophenyl)-6-((5-(piperidin-1-yl)pyridin-3-yl)sulfonyl)-4,4a,5,6,7,8-hexahydro-1H-pyrazolo[3,4-g]isoquinolin-4a-yl)(pyridin-2-yl)methanone]		< 0.5		
Cn1cc(S(=O)(=O)N2CCC3=Cc4c(cnn4-c4ccc(F)cc4)C[C@]3(C(=O)c3ccccn3)C2)ccc1=O [Example 17, (R)-5-((1-(4-fluorophenyl)-4a-picolinoyl-4a,5,7,8-tetrahydro-1H-pyrazolo [3,4-g]isoquinolin-6 (4H)-yl)sulfonyl)-1-methylpyridin-2 (1H)-one]	≥ 100			
Cc1cnc(C(=O)[C@]23Cc4cnn(-c5ccc(F)cc5)c4C=C2CCN(S(=O)(=O)c2ccc(Cl)c(Cl)c2)C3)s1 [Example 12O, (R)-(6-((3,4-dichlorophenyl)sulfonyl)-1-(4-fluorophenyl)-4,4a,5,6,7,8-hexahydro-1H-pyrazolo[3,4-g]isoquinolin-4a-yl)(5-methylthiazol-2-yl)methanone]		< 0.5		
